US20100009934A1, “BETA ADRENERGIC RECEPTOR AGONISTS FOR THE TREATMENT OF B-CELL PROLIFERATIVE DISORDERS” (CombinatoRx, Incorporated, priority 2008, published 2010)
Several values for one entry are separate records, joined by “and”; a condition that tells them apart may be missing. Identical values can stand only once. Like-named read-outs stand apart in the source and are kept apart here.

Tests used:
[1] = system: Human Multiple Myeloma Cells (EJM); experiment: Anti-proliferation assay (ATPLite, 72 hours), EJM; conditions: DEX μM r7-r15: 2.03, 0.675, 0.225, 0.075, 0.025, 0.00834, 0.00278, 0.00093, 0
[2] = system: MM.1S cells; experiment: Annexin V/PI FACS assay of control MM.1S and cells cultured one month with salmeterol or salbutamol; type: cell-based, human; conditions: 250 pM salmeterol
Procedure: Forty eight hours later, the percent of cells positive for Annexin V and propidium iodide (PI) was determined using FACS (FIG. 5).

[3] = system: Human Multiple Myeloma Cells (MM.1S); experiment: Anti-proliferation assay (ATPLite, 72 hours), MM.1S
[4] = system: Human Multiple Myeloma Cells (MM.1S) cultured in the presence of BAR agonist for one month; experiment: Antiproliferative activity on MM.1S cultured one month in the presence of salmeterol or salbutamol; type: cell-based; conditions: for percent inhibition of cell proliferation: MM.1S cultured in Salmeterol for one month (final 64 nM), DEX (μM): 2.0, 0.666, 0.23, 0.074, 0.024, 0.0082, 0.00274, 0.0009, 0
From the text: A recurrent problem in cancer therapy is that prolonged exposure of tumor cells to chemotherapeutic agents can generate cells resistant to agents that initially have antiproliferative or cell killing activity. […] Cells cultured for one month in the presence of BAR agonist were washed to remove drug and put into 384 well plates for 9×9 dose matrix combination screening with BAR agonists and dexamethasone.

[5] = system: MM.1S cells; experiment: Annexin V / propidium iodide apoptosis assay, MM.1S; type: cell-based, human; conditions: 0.3 nM salmeterol, 72 hours (FIG. 2)
Procedure: Effects on cell viability were determined by measuring the percent of cells that were annexin V positive (an early marker for apoptosis) and by measuring the percent of cells propidium iodide (PI) positive, an indicator that cellular membranes are compromised and a marker of cell death.

[6] = system: multiple myeloma tumor cells from patients; experiment: MTT cell viability assay, multiple myeloma patient tumor cells; conditions: Homo sapiens, 48 h
From the text: Tumor cells were obtained via bone marrow aspirates and affinity selected using CD138-linked magnetic beads.

[7] = system: RPMI-8226 multiple myeloma (MM) xenograft; conditions: Day 19; 10 mg/kg salmeterol, 0.5 mg/kg bortezomib, or both
Procedure: Dexamethasone was administered by intraperitoneal (IP) injection daily for thirty-six treatments (QD×36). Bortezomib was injected intravenously (IV) every third day for six treatments (Q3D×6).
(§1) Group 1—Vehicle (90% PBS+10% EtOH)
Significant endpoints included mean tumor growth inhibition (TGI) or regression, animal weight loss, and potential toxicity. […] Animals were implanted with cancer cells harvested from tissue culture and allowed to establish tumors in SCID mice. Treatment initiated when the mean tumor volume reached 137 mm^3 in size.

[8] = system: human multiple myeloma xenografts (MM1S); experiment: MM.1S xenograft model in SCID mice; type: in vivo, mouse; conditions: Dex 1 mg/kg or salmeterol 10 mg/kg, subcutaneous daily
Procedure: The human multiple myeloma cell line MM1S was injected subcutaneously into the flanks of SCID mice. Five days following the injection of MM1S cells, animals were randomized into the following four treatment groups (n=6-7) based on tumor size.
as §1
The prepared test, positive, and negative control substances were administered via subcutaneous injection daily for up to 85 Days. During the treatment period, tumor volume and animal body weights were measured 3 times per week (Monday, Wednesday and Friday). The animals were removed from the study if there was overall poor body condition, tumor volume above 3000 mm^3, body weight loss greater than or equal to 20% or ulcerated tumors.
The slope of the tumor volume growth of each animal was calculated from the initial study day until the day each animal was removed from the study. From these slopes the mean change in tumor volume per study day was calculated.

[9] = system: RPMI-8226 cells; conditions: 2 nM salmeterol for 5 hours, soft agar, three weeks; 740 colonies without drugs
Procedure: The effect of BAR agonists on cells grown in soft agar was also determined. This approach allows the measurement of long term cell viability after single agent or combination treatment. […] Cells were washed and plated in soft agar. After three weeks colonies were counted to determine cell viability.

[10] = system: Human Multiple Myeloma Cells (ANBL-6); experiment: Anti-proliferation assay (ATPLite, 72 hours), ANBL-6; conditions: for Antiproliferative Activity: Salmeterol 0.00000506 μM
[11] = system: Diffuse Large B-Cell Lymphoma Cell Line OCI-Ly10; experiment: Anti-proliferation assay (ATPLite, 72 hours), OCI-ly10; type: cell-based; conditions: DEX μM r7-r15: 0.101, 0.033666667, 0.011222222, 0.003740741, 0.001246914, 0.000415638, 0.000138546, 0.000046182, 0
From the text: Combinations were ranked initially by Additivity Excess Volume, which is defined as ADD Volume=ΣCX, CY (Idata−ILoewe), where ILoewe(CX, CY) is the inhibition that satisfies (CX/ECX)+(CY/ECY)=1, and ECX,Y are the effective concentrations at ILoewe for the single agent curves.

[12] = system: Human Multiple Myeloma Cells (MM.1S); conditions: 10 ng/ml IL-6 vs no IL-6 (Tables 52 and 53)
[13] = Homo sapiens, MM1.S, read-out: percent inhibition of cell proliferation
[14] = read-out: Reduction in Cell Viability

SMILES: OCc1cc(C(O)CNCCCCCCOCCCCc2ccccc2)ccc1O (centres unmarked) [salmeterol]
- Antiproliferative Activity ([1]; Salmeterol 0.000158 μM): 38.1
- Antiproliferative Activity ([1]; Salmeterol 0.000316 μM): 47.7
- Antiproliferative Activity ([1]; Salmeterol 0.00506 μM): 47.9
- sensitivity (Annexin V/PI) ([2]; cells treated for one month with salmeterol or salbutamol, 48 hours): not sensitive
- Annexin V/PI+ cells ([2]; control cells, 48 hours (FIG. 5)): 20%
- inhibition at 9.1 pM [3, 13]: 4.9%
- inhibition at 27 pM [3, 13]: 7.1%
- inhibition at 80 pM [3, 13]: 25%
- inhibition at 0.02 µM [3, 13]: 59%
- percent inhibition of cell proliferation ([3]; SAHA 0 μM (single agent), Salmeterol (nM) by row: r7 0.011, r8 0.0036, r9 0.0012, r10 0.0004, r11 0.00013, r12 0.000045): 70%
- Antiproliferative Activity ([3]; Salmeterol 0.00000506 μM, BORT μM r7-r15: 0.0405, 0.0203, 0.0101, 0.00506, 0.00253, 0.00127, 0.000633, 0.000316, 0): 16.9%
- percent inhibition of cell proliferation ([4]; Salmeterol 0.00008 μM): 6.1%
- percent inhibition of cell proliferation ([4]; Salmeterol 0.02 μM): 5.6%
- inhibition of proliferation ([4]; […] salmeterol, cells cultured one month in salmeterol (64 nM), Table 48): 4.1%
- single agent sensitivity after culture in 64 nM salmeterol ([4]; cells cultured one month in salmeterol (Table 48)): no longer sensitive
- induction of MM.1S cell apoptosis [5]: ~40%
- cytotoxicity at 12.5 pM [6, 14]: -0.2%
- cytotoxicity at 25 pM [6, 14]: 12%
- cytotoxicity at 50 pM [6, 14]: 13%
- cytotoxicity at 0.0001 µM [6, 14]: 35%
- cytotoxicity at 0.0002 µM [6, 14]: 40%
- cytotoxicity at 0.0004 µM [6, 14]: 38%
- cytotoxicity at 0.0008 µM [6, 14]: 44%
- cytotoxicity at 0.0004 µM ([6]; read-out: activity (reduction in cell viability)): 38%
- viability at 0.001 µM ([6]; read-out: tumor cell viability): 80%
- tumor growth inhibition (TGI) [7]: 37%
- study day by which all animals of the group were removed [8]: ≤ 43 study day
- colony number per 10,000 cells plated [9]: 360 colonies
- Antiproliferative Activity ([10]; DEX μM r7-r15: 2.03, 0.675, 0.225, 0.075, 0.025, 0.00834, 0.00278, 0.00093, 0): 18.6
- Antiproliferative Activity ([10]; LEN μM r7-r15: 4.04, 2.02, 1.01, 0.505, 0.253, 0.126, 0.0632, 0.0316, 0): 34.7
- percent inhibition of cell proliferation ([10]; Trequinsin 0 μM (single agent), SAL (μM): 0.0203, 0.0101, 0.00506, 0.00253, 0.00127, 0.000633, 0.000316, 0.000158): 54% and 55.7% and 58.4% and 54.8% and 50.7% and 58% and 54.7% and 55%
- Antiproliferative Activity ([11]; Salmeterol 0.001055 μM): 5.9
- Antiproliferative Activity ([11]; Salmeterol 0.003165 μM): 6.3
- Antiproliferative Activity ([11]; Salmeterol 0.009494 μM): 9.1
- Antiproliferative Activity ([11]; Salmeterol 0.028481 μM): −0.6
- Antiproliferative Activity ([11]; Salmeterol 0.085444 μM): 6.3
- Antiproliferative Activity ([11]; Salmeterol 0.256333 μM): 27
- effect of IL-6 on antiproliferative activity [12]: increased at each concentration tested
